Test results as given in PMC12881674, “Activation of TRPV3 channels in bladder cancer cells stimulates ATP release” (Molecular Pharmacology, 2025).

Target: T1, TRPV3 in KU-19-19 cells (Homo sapiens, UniProt Q8NET8)
T1 construct: host or cells: KU-19-19
T1 sequence (Q8NET8 1-790): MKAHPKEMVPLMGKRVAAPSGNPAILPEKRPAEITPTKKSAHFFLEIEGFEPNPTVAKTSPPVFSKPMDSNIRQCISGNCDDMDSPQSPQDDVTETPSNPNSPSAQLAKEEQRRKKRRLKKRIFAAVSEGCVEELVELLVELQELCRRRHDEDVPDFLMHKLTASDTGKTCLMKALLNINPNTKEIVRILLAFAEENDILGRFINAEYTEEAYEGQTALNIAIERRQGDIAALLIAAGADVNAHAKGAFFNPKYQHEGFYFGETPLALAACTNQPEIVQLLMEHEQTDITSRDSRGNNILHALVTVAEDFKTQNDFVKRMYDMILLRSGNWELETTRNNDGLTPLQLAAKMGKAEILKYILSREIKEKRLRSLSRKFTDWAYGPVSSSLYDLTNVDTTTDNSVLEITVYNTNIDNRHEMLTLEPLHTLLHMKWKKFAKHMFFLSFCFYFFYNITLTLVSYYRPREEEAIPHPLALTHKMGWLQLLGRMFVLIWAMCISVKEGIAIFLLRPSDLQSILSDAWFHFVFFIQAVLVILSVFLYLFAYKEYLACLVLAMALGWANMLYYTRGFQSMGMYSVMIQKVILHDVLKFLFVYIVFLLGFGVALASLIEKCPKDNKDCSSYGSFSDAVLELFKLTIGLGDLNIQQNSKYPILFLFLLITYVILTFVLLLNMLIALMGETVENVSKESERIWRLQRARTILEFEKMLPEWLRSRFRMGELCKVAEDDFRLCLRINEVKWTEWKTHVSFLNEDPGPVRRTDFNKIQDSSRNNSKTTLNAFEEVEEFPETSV
Test: whole-cell patch-clamp recordings in KU-19-19 cells
Type: cell-based
Protocol: Supplementation of the cellular cholesterol content in KU-19-19 cells was performed by adding cholesterol-loaded methyl-β-cyclodextrin (MβCD) to the cells. Cholesterol was dissolved in ethanol (20 mg/mL) by heating at 65 °C for 15 minutes. The cholesterol solution was then added dropwise to a 250 mM MβCD solution prepared in phosphate-buffered solution (PBS; Sigma Aldrich) at a 1:4 (v/v) ratio, yielding a stock containing 200 mM MβCD-cholesterol. KU-19-19 cells were incubated for 15 minutes at 37 °C in HBS containing 2.5 mM MβCD-cholesterol. As a control, KU-19-19 cells were incubated in HBS without MβCD-cholesterol supplement under the same conditions. […]
Fig. 3 TRPV3 is functionally expressed in bladder cancer cells. (A–D) Activation of TRPV3 in KU-19-19 (A, B) and CAL-29 (C, D) bladder cancer cells by AV3-1, assessed by fura-2-based Ca^2+ assays. […] (B, D) Quantification of peak [Ca^2+]ᵢ responses from KU-19-19 (B) and CAL-29 (D) cells under the indicated treatment conditions. Statistical significance was determined using one-way ANOVA with Tukey post hoc analysis; ∗P < .05. […] Current amplitudes were recorded using voltage ramps from −100 mV to +100 mV (500-millisecond duration) such as in F and expressed as current density (pA/pF) measured at +100 mV and −100 mV. […] Statistical significance was determined using Kruskal-Wallis ANOVA followed by Conover test; ∗P < .05. […]

currents under cholesterol-loaded conditions compared with untreated cells (50 μM AV3-1, KU-19-19 cells preincubated with 2.5 mM MβCD-cholesterol): substantially larger currents
Structure (SMILES): COC(=O)C12CN(Cc3ccccc3)CC1(C(=O)OC)CN(Cc1ccccc1)C2 (centres unmarked) [AV3-1]
TRPV3 currents in KU-19-19 cells (50 μM AV3-1, repeated applications): robustly and reproducibly activated TRPV3 currents
